Key:
Experiment in all cases: relative viability (nuclei count vs DMSO), 5 days (fraction); higher = more cells survive
Idelalisib + Phenformin = compound: CC[C@H](Nc1ncnc2[nH]cnc12)c1nc2cccc(F)c2c(=O)n1-c1ccccc1 [Idelalisib] + N=C(N)NC(=N)NCCc1ccccc1 [Phenformin] (partner 250 µM)
Procedure, shortened: (§1)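 After 5 days of treatment, lung cancer cells in 1536-well plates were fixed and stained in a single step (final 0.05% Triton X-100, 1% formaldehyde, 1 ug/ml Hoechst) and their nuclei counted on 4× images. Treatment had been applied by pin tool the day after seeding as one drug alone or as a fixed anchor-drug dose with five library-drug doses (not always all listed) in √10 steps. Relative viability is the nuclei count of treated wells divided by that of vehicle wells, and values are medians of duplicate plates.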

Idelalisib + Navitoclax = compound: CC[C@H](Nc1ncnc2[nH]cnc12)c1nc2cccc(F)c2c(=O)n1-c1ccccc1 [Idelalisib] + CC1(C)CCC(c2ccc(Cl)cc2)=C(CN2CCN(c3ccc(C(=O)NS(=O)(=O)c4ccc(N[C@H](CCN5CCOCC5)CSc5ccccc5)c(S(=O)(=O)C(F)(F)F)c4)cc3)CC2)C1 [Navitoclax] (partner 0.5 µM)
Procedure, shortened: as §1

Idelalisib + Tozasertib = compound: CC[C@H](Nc1ncnc2[nH]cnc12)c1nc2cccc(F)c2c(=O)n1-c1ccccc1 [Idelalisib] + Cc1cc(Nc2cc(N3CCN(C)CC3)nc(Sc3ccc(NC(=O)C4CC4)cc3)n2)n[nH]1 [Tozasertib] (partner 0.1 µM)
Procedure, shortened: as §1

Pemetrexed + Bortezomib = compound: Nc1nc2[nH]cc(CCc3ccc(C(=O)N[C@@H](CCC(=O)O)C(=O)O)cc3)c2c(=O)[nH]1 [Pemetrexed] + CC(C)C[C@H](NC(=O)[C@H](Cc1ccccc1)NC(=O)c1cnccn1)B(O)O [Bortezomib] (partner 0.002 µM)
Procedure, shortened: as §1

Row | Cell Line | relative viability (Idelalisib + Phenformin; first compound 0.04 µM) | relative viability (Idelalisib + Phenformin; first compound 0.1265 µM) | relative viability (Idelalisib + Phenformin; first compound 0.4 µM) | relative viability (Idelalisib + Phenformin; first compound 1.265 µM) | relative viability (Idelalisib + Phenformin; first compound 4 µM) | relative viability (Idelalisib + Navitoclax; first compound 0.04 µM) | relative viability (Idelalisib + Navitoclax; first compound 0.1265 µM) | relative viability (Idelalisib + Navitoclax; first compound 0.4 µM) | relative viability (Idelalisib + Navitoclax; first compound 1.265 µM) | relative viability (Idelalisib + Navitoclax; first compound 4 µM) | relative viability (Idelalisib + Tozasertib; first compound 0.04 µM) | relative viability (Idelalisib + Tozasertib; first compound 0.1265 µM) | relative viability (Idelalisib + Tozasertib; first compound 0.4 µM) | relative viability (Idelalisib + Tozasertib; first compound 1.265 µM) | relative viability (Idelalisib + Tozasertib; first compound 4 µM) | relative viability (Pemetrexed + Bortezomib; first compound 0.002 µM) | relative viability (Pemetrexed + Bortezomib; first compound 0.006325 µM) | relative viability (Pemetrexed + Bortezomib; first compound 0.02 µM) | relative viability (Pemetrexed + Bortezomib; first compound 0.06325 µM) | relative viability (Pemetrexed + Bortezomib; first compound 0.2 µM)
1 | HCC-44 | 0.201 | 0.229 | 0.177 | 0.235 | 0.153 | 1.01 | 0.925 | 0.871 | 1.07 | 0.927 | 0.879 | 1.02 | 0.762 | 0.866 | 0.756 | 0.859 | 0.934 | 1.03 | 0.888 | 0.681
2 | HCC-78 | 0.945 | 0.647 | 0.582 | 0.751 | 0.674 | 0.762 | 0.648 | 0.682 | 0.797 | 0.505 | 0.314 | 0.389 | 0.392 | 0.388 | 0.295 | 0.369 | 0.436 | 0.46 | 0.294 | 0.322
3 | HCC-366 | 0.597 | 0.639 | 0.619 | 0.632 | 0.679 | 1.11 | 1.11 | 1.01 | 1.01 | 0.97 | 0.121 | 0.126 | 0.107 | 0.112 | 0.068 | 0.97 | 1.04 | 1.13 | 1.05 | 0.661
4 | HCC-827 | 0.424 | 0.393 | 0.37 | 0.352 | 0.323 | 1.06 | 1.05 | 1.03 | 1.03 | 0.964 | 0.457 | 0.447 | 0.389 | 0.453 | 0.398 | 0.961 | 1.02 | 1.01 | 1.01 | 0.748
5 | IA-LM | – | – | – | – | – | 0.905 | 0.856 | 1.01 | 1.08 | 0.919 | – | – | – | – | – | 0.81 | 0.82 | 0.943 | 0.695 | 0.641
6 | LCLC-103H | 0.367 | 0.312 | 0.275 | 0.33 | 0.314 | – | – | – | – | – | 0.505 | 0.48 | 0.425 | 0.472 | 0.308 | 1.08 | 1.01 | 1 | 1.23 | 1.02
7 | LK-2 | 0.477 | 0.407 | – | 0.536 | 0.384 | 0.99 | 0.835 | – | 1.02 | 0.729 | 0.178 | 0.165 | – | 0.18 | 0.164 | – | – | – | – | –
8 | NCI-H358 | 0.386 | 0.327 | 0.225 | 0.338 | 0.313 | – | – | – | – | – | 0.106 | 0.0937 | 0.113 | 0.088 | 0.116 | – | – | – | – | –
9 | NCI-H522 | 0.675 | 0.66 | 0.641 | 0.761 | 0.634 | – | – | – | – | – | 0.578 | 0.569 | 0.508 | 0.571 | 0.489 | – | – | – | – | –
10 | NCI-H650 | 0.519 | 0.429 | 0.446 | 0.487 | 0.457 | – | – | – | – | – | 0.748 | 0.767 | 0.635 | 0.803 | 0.69 | 0.67 | 0.828 | 0.748 | 0.853 | 0.866
11 | NCI-H661 | 0.271 | 0.256 | 0.256 | 0.269 | 0.281 | – | – | – | – | – | 0.414 | 0.358 | 0.391 | 0.358 | 0.408 | 0.945 | 0.88 | 0.891 | 0.727 | 0.648
12 | NCI-H1299 | – | – | – | – | – | 1.04 | 1.01 | 1.07 | 1.12 | 1.08 | – | – | – | – | – | 1.02 | 1.01 | 1.03 | 1.03 | 0.987
13 | NCI-H1395 | 0.476 | 0.421 | 0.423 | 0.445 | 0.439 | 1.53 | 1.11 | 1.05 | 1.04 | 0.982 | 0.817 | 0.77 | 0.771 | 0.767 | 0.62 | – | – | – | – | –
14 | NCI-H1563 | 0.666 | 0.666 | 0.612 | 0.631 | 0.638 | – | – | – | – | – | – | – | – | – | – | 0.784 | 0.869 | 0.978 | 0.855 | 0.932
15 | NCI-H1623 | 0.596 | 0.619 | 0.537 | 0.529 | 0.547 | – | – | – | – | – | 0.393 | 0.429 | 0.443 | 0.431 | 0.388 | – | – | – | – | –
16 | NCI-H1648 | – | – | – | – | – | – | – | – | – | – | 0.489 | 0.373 | 0.412 | 0.425 | 0.217 | – | – | – | – | –
17 | NCI-H1703 | – | – | – | – | – | 1.15 | 1.05 | 0.922 | 1.13 | 0.501 | – | – | – | – | – | 0.277 | 0.224 | 0.605 | 0.248 | 0.271
18 | NCI-H1792 | 0.335 | 0.182 | – | 0.225 | 0.208 | 0.464 | 0.587 | 0.617 | 0.667 | 0.645 | – | – | – | – | – | 0.931 | 0.969 | 0.966 | 0.943 | 0.927
19 | NCI-H1793 | 0.388 | 0.369 | 0.288 | 0.335 | 0.224 | 0.379 | 0.462 | 0.259 | 0.346 | 0.22 | 0.344 | 0.311 | 0.222 | 0.229 | 0.225 | – | – | – | – | –
20 | NCI-H1944 | 0.237 | 0.204 | 0.158 | 0.187 | 0.175 | 1.03 | 1.02 | 1.07 | 0.923 | 0.841 | 0.272 | 0.229 | 0.219 | 0.224 | 0.211 | – | – | – | – | –
21 | NCI-H2170 | 0.443 | 0.449 | 0.403 | 0.408 | 0.373 | 0.665 | 0.613 | 0.524 | 0.598 | 0.509 | 0.796 | 0.706 | 0.69 | 0.727 | 0.633 | – | – | – | – | –
22 | NCI-H2342 | 0.597 | 0.584 | 0.514 | 0.614 | 0.482 | – | – | – | – | – | 0.44 | 0.556 | 0.44 | 0.455 | 0.397 | – | – | – | – | –
23 | SK-MES-1 | 0.704 | 0.675 | 0.663 | 0.686 | 0.674 | 0.995 | 1.41 | 1.12 | 1.08 | 0.867 | 0.972 | 1.05 | 0.955 | 0.964 | 0.931 | – | – | – | – | –
24 | SW 900 | 0.683 | 0.458 | 0.634 | 0.614 | 0.395 | – | – | – | – | – | 0.69 | 0.539 | 0.542 | 0.605 | 0.594 | – | – | – | – | –

Source: the supplement of paper PMC10307832
